US8883789B2, “Piperazine derivatives and their use as positive allosteric modulators of mGluR5 receptors” (Boehringer Ingelheim International GmbH, priority 2011, dated 2014)

Biological target: T1, human recombinant mGluR5 (Homo sapiens, UniProt P41594)
T1 construct: expressed in transfected cells; hygromycin and geneticin selection
Experiment: positive modulation of mGluR5, calcium based FLIPR assay
Settings: HEK 293 cell line expressing human recombinant mGluR5; Ca2+ peak height after glutamate at approximately 5% basal stimulation; nonlinear regression
Procedure: The positive modulation of mGluR5 is measured in a HEK 293 cell line expressing human recombinant mGluR5 and is detected with calcium based FLIPR assay. The cells are cultured with DMEM supplemented with 10% FCS, 2 μg/mL tetracycline, 100 μg/mL hygromycin and 500 μg/mL geneticin. The cell culture media is exchanged for tetracycline-free cell culture media 3-7 days before the assay. One day before the assay the cell culture medium is exchanged to DMEM without glutamine and phenol red and supplemented with 10% FCS, 100 μg/mL hygromycin and 500 μg/mL geneticin. On the assay day, the medium of the subconfluent cultures is removed and the cells are detached by addition of 2.5 ml EDTA (0.02%) per 175 cm2 culture flask for 1 minute. The cells are resuspend in Ringer solution (140 mM NaCl, 5 mM KCl, 2.5 mM CaCl2, 1.5 mM MgCl2, 5 mM Glucose, 10 mM Hepes; adjusted to pH 7.4 with NaOH), pooled and Ringer solution added to adjust the volume to 50 mL. The cell suspension is centrifuged for […] at 1500 U/min (425 g). The supernatant is removed and the cells washed a second time with 50 ml fresh Ringer solution and centrifuged again as before. The supernatant is again removed and the pellet resuspended in Ringer solution to 1,000,000 cells/ml (1×10^6 cells/mL). The cells are plated onto BD BioCoat Poly-D-Lysine 384 well plates (20.000 cells/well; 20 μl/well). The lid covered plates are then incubated until use at 37° C./10% CO2. For dye loading, 20 μl of Calcium-4 assay kit solution (prepared according to the manufacturer's description in Ringer solution) are added to the cells and the plates are incubated for 80 min 37° C. and then 10 min at room temperature.
Controls, Compound Dilution and Assay Execution:
Each assay plate contained wells with “high” and “low” controls:
Low controls 1% DMSO/ringer solution+basal glutamate activation (defined as 100% CTL).
High controls 10 μM CDPPB+basal glutamate activation (defined as 200% CTL).
Test compounds are dissolved and diluted in DMSO to 100-fold the desired concentrations. In a second step, the compounds are diluted in Ringer solution such that the compounds are 4-fold more concentrated than the desired final assay concentration. The final DMSO concentration was 1%.
20 μl of each compound solution are then transferred to the assay plate and the Ca2+ kinetic is measured to determine any intrinsic compound activity. After 5 min incubation in the FLIPR device, the second stimulation with 20 μl of glutamate in Ringer solution (glutamate concentration adjusted to approximately 5% basal stimulation of the maximal possible glutamate effect) is added and the kinetic Ca2+ response of the wells was measured for the modulation effect.
The peak height of the Ca release related fluorescence signal (9-66) is used for the EC50.
The EC50 of the modulation is calculated over a nonlinear regression with GraphPad Prism (Table 1).

T1 sequence (P41594 21-1212): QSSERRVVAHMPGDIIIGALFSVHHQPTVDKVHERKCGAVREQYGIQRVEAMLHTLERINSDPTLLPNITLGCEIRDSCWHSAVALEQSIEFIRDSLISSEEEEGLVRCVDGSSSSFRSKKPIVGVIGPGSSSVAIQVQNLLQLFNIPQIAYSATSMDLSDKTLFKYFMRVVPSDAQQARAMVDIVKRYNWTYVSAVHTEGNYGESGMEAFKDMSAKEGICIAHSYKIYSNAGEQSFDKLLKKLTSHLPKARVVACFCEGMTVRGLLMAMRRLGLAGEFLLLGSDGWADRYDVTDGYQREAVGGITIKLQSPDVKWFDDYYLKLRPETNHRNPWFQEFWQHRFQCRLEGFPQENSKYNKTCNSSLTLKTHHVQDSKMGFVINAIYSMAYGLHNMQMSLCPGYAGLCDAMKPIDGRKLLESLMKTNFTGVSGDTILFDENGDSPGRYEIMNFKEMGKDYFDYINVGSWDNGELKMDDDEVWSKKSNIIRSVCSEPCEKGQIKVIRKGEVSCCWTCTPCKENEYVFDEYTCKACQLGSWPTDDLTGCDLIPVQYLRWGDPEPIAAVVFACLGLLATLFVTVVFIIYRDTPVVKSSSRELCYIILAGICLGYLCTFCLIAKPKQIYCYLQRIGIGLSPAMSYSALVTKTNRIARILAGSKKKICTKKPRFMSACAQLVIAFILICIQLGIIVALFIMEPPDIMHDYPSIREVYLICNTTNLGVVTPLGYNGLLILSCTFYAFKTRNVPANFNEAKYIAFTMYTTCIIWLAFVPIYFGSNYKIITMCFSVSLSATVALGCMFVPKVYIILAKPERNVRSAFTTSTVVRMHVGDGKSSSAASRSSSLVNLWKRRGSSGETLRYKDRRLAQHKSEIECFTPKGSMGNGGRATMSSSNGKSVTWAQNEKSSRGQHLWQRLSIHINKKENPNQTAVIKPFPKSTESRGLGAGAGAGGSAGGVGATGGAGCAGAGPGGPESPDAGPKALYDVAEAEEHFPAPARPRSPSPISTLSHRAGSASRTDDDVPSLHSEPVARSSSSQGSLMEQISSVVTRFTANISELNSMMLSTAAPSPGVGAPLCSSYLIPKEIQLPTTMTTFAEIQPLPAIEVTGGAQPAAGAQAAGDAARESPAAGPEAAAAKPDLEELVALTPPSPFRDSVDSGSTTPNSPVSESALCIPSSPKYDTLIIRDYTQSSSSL

Structure (SMILES) | EC50
COc1nc(C(=O)N2CCN(C(=O)c3nnn(-c4cccc(F)c4)n3)C(C)(C)C2)cc2ccccc12 [Example 207, [2-(3-Fluoro-phenyl)-2H-tetrazol-5-yl]-[4-(1-methoxy-isoquinoline-3-carbonyl)-2,2-dimethyl-piperazin-1-yl]-methanone] | 34 nM
CC(=O)c1cccc(C(=O)N2CCN(C(=O)c3ncn(-c4cccc(Cl)c4)n3)C(C)(C)C2)n1 [Example 52] | 63 nM
COc1cccc(C(=O)N2CCN(C(=O)c3ncn(-c4cccc(C)c4)n3)CC2C)n1 (stereo not drawn) [Example 244] | 216 nM
COc1cccc(C(=O)N2CCN(C(=O)c3nnn(-c4cccc(C)c4)n3)C(C)(C)C2)n1 [Example 198] | 123 nM
Cc1cc(C)cc(C(=O)N2CCN(C(=O)c3ncn(-c4cccc(Cl)c4)n3)C(C)(C)C2)c1 [Example 70] | 142 nM
COc1nc(C(=O)N2CCN(C(=O)c3nnn(-c4cccc(Cl)c4)n3)C(C)(C)C2)cc2ccccc12 [Example 208] | 125 nM
CC1(C)CN(C(=O)c2cc3ccccc3c(C3CC3)n2)CCN1C(=O)c1ncn(-c2ccccc2)n1 [Example 203] | 62 nM
CC1CN(C(=O)c2cc3c(Cl)cccc3s2)CCN1C(=O)c1ncn(-c2ccccc2)n1 (stereo not drawn) [Example 293] | 361 nM
CCn1ccc(C(=O)N2CCN(C(=O)c3ncn(-c4cccc(Cl)c4)n3)C(C)(C)C2)n1 [Example 56] | 436 nM
CC1CN(C(=O)c2ncn(-c3cccc(Cl)c3)n2)CCN1C(=O)c1sc2ccccc2c1Cl (stereo not drawn) [Example 226] | 600 nM
CC1CN(C(=O)c2cc(Br)c(Br)o2)CCN1C(=O)c1ncn(-c2cccc(Cl)c2)n1 (stereo not drawn) [Example 266] | 538 nM
Cc1cc2cc(C(=O)N3CCN(C(=O)c4ncn(-c5ccccc5)n4)C(C)(C)C3)ccc2[nH]1 [Example 142] | 122 nM
Cc1c(C(=O)N2CCN(C(=O)c3ncn(-c4cccc(Cl)c4)n3)C(C)(C)C2)oc2ccc(F)cc12 [Example 41] | 200 nM
CC(C)COc1cccc(C(=O)N2CCN(C(=O)c3ncn(-c4ccccc4)n3)C(C)(C)C2)c1 [Example 129] | 88 nM
CC1(C)CN(C(=O)c2cc(Br)c(Br)o2)CCN1C(=O)c1ncn(-c2ccccc2)n1 [Example 105] | 64 nM
CC1(C)CN(C(=O)c2cccc(C(F)(F)F)n2)CCN1C(=O)c1ncn(-c2cccc(Cl)c2)n1 [Example 13] | 22 nM
CC1(C)CN(C(=O)c2cccc(Cl)c2)CCN1C(=O)c1nnn(-c2cccc(F)c2)n1 [Example 192] | 159 nM
COc1ccnc(C(=O)N2CCN(C(=O)c3ncn(-c4cccc(Cl)c4)n3)C(C)(C)C2)c1 [Example 40] | 852 nM
CC1(C)CN(C(=O)c2cccc(N3CCCC3)n2)CCN1C(=O)c1ncn(-c2cccc(Cl)c2)n1 [Example 51] | 102 nM
Cc1cccc(C(=O)N2CCN(C(=O)c3ncn(-c4ccccc4)n3)C(C)(C)C2)c1 [Example 117] | 208 nM
CC1(C)CN(C(=O)c2nccc(C(F)(F)F)n2)CCN1C(=O)c1ncn(-c2cccc(Cl)c2)n1 [Example 84] | 107 nM
CC1(C)CN(C(=O)c2cccc(C3(F)COC3)c2)CCN1C(=O)c1ncn(-c2cccc(Cl)c2)n1 [Example 23] | 58 nM
CC1CN(C(=O)c2ncn(-c3cccc(Cl)c3)n2)CCN1C(=O)c1cn(C)c2ccccc12 (stereo not drawn) [Example 230] | 570 nM
CC1(C)CN(C(=O)c2cccc(C3CC3)c2)CCN1C(=O)c1ncn(-c2ccccc2)n1 [Example 136] | 52 nM
CCC1CN(C(=O)c2ncn(-c3cccc(Cl)c3)n2)CCN1C(=O)c1cccc(OC)n1 (stereo not drawn) [Example 258, {4-[1-(3-Chloro-phenyl)-1H-[1,2,4]triazole-3-carbonyl]-2-ethyl-piperazin-1-yl}-(6-methoxy-pyridin-2-yl)-methanone] | 172 nM
CC1(C)CN(C(=O)c2cccc(-c3ccc(C#N)cc3)c2)CCN1C(=O)c1ncn(-c2cccc(Cl)c2)n1 [Example 78] | 146 nM
Cc1ccc(C(=O)N2CCN(C(=O)c3ncn(-c4cccc(Cl)c4)n3)C(C)(C)C2)cc1Cl [Example 71] | 47 nM
